In this assay the target is T1, CYP2C9 (Homo sapiens, UniProt P11712).
T1 construct: Human liver microsome (20 mg protein/mL, 5 μL, Xenotech LLC, purchased from Lenexa KS); tissue Xenotech LLC; host or cells: human liver microsome
T1 sequence (P11712 whole entry): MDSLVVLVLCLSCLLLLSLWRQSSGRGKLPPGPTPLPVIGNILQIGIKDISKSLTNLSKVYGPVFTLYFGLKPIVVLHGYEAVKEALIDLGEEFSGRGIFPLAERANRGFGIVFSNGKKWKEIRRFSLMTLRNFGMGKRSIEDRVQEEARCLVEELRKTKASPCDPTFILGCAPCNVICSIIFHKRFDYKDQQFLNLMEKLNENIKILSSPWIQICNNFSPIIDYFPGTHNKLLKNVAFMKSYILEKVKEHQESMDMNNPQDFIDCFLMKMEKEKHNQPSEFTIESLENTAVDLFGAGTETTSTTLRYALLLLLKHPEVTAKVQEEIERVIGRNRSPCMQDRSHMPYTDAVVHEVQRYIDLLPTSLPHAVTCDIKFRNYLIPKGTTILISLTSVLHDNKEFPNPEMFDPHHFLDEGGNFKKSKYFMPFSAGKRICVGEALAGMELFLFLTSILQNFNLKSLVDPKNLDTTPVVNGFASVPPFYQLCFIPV
In words: CYP inhibitory test using human liver microsome. The class given is in vitro ADME. The settings on record: model substrate diclofenac, 37° C. 10 min, read-out: CYP2C9 inhibition IC50. On the procedure: Human liver microsome (20 mg protein/mL, 5 μL, Xenotech LLC, purchased from Lenexa KS) was suspended in 100 mM potassium phosphate buffer (70 μL, pH 7.4), mixed with a solution (0.5 μL) of the Example compound dissolved in DMSO and preincubated at 37° C. for 5 min. NADPH producing system coenzyme solution (β-nicotinamide adenine dinucleotide phosphate: 5.2 mM, D-glucose-6-phosphate: 13.2 mM, magnesium chloride: 13.2 mM, glucose-6-phosphate dehydrogenase: 1.8 U/mL) 25 μL, and a model substrate (CYP3A4: midazolam 1 mM, CYP2D6: bufuralol 1 mM, CYP2C9: diclofenac 2 mM) 0.5 μL dissolved in DMSO were added to start the reaction. After incubation at 37° C. for 10 min., acetonitrile (200 μL) containing an internal standard substance (propranolol 1 μM) was added and the mixture was centrifuged (room temperature, 3000 rpm, 20 min). The amount of the metabolite produced from each model substrate in the supernatant was measured by high performance liquid chromatography/mass spectrometry (LC/MS/MS) and each CYP enzyme activity was determined. The concentration showing 50% inhibition (IC50) was calculated relative to the enzyme activity without addition of Example compound (DMSO 0.5 μL added) as 100%.
On the technique in general: Liver microsomes are vesicles of endoplasmic reticulum, rich in cytochrome P450 enzymes.
The IC50 is the concentration at which inhibition is half-maximal. As to `O=C(c1cc(Cl)c(O)c(Cl)c1)N1CCOc2ccc([N+](=O)[O-])cc21` [Example 67, (3,5-dichloro-4-hydroxyphenyl)-(6-nitro-2,3-dihydrobenzo[1,4]oxazin-4-yl)-methanone], the IC50 stood at 49 µM. Regarding `CS(=O)(=O)N1CCN(C(=O)c2cc(Cl)c(O)c(Cl)c2)c2ccccc21` [Example 83, (3,5-dichloro-4-hydroxyphenyl)-(4-methanesulfonyl-3,4-dihydro-2H-quinoxalin-1-yl)-methanone], the IC50 is greater than 50 µM. Take `CC(C)c1cccc2c1OC(C(C)C)CN2C(=O)c1cc(Cl)c(O)c(Cl)c1` (stereo not shown) [Example 32, (3,5-dichloro-4-hydroxyphenyl)-(2,8-diisopropyl-2,3-dihydrobenzo[1,4]oxazin-4-yl)-methanone]: the IC50 amounted to 10 µM. For `COC(=O)c1cccc2c1OCCN2C(=O)c1cc(Cl)c(O)c(Cl)c1` [Example 61, methyl 4-(3,5-dichloro-4-hydroxybenzoyl)-3,4-dihydro-2H-benzo[1,4]oxazine-8-carboxylate], the IC50 was 43 µM.

`O=C(c1cc(Cl)c(O)c(Cl)c1)N1CCOc2ccc(O)cc21` [Example 19, (3,5-dichloro-4-hydroxyphenyl)-(6-hydroxy-2,3-dihydrobenzo[1,4]oxazin-4-yl)-methanone]: the IC50 was greater than 50 µM. As to `O=C(O)c1ccccc1C(=O)N1CCOc2ccccc21` [Example 45, 2-(2,3-dihydrobenzo[1,4]oxazine-4-carbonyl)benzoic acid], the IC50 is greater than 50 µM.

In the case of `O=C(O)c1cccc(C(=O)N2CCOc3ccccc32)c1` [Example 49, 3-(2,3-dihydrobenzo[1,4]oxazine-4-carbonyl)benzoic acid], the IC50 was greater than 50 µM.

In the case of `O=C(c1cc(Cl)c(O)c(Cl)c1)N1CCOc2cccc(O)c21` [Example 89, (3,5-dichloro-4-hydroxyphenyl)-(5-hydroxy-2,3-dihydrobenzo[1,4]oxazin-4-yl)-methanone], the IC50 was determined as 11 µM. On to `CCOC(=O)COc1c(Cl)cc(C(=O)N2CCOc3ccccc32)cc1Cl` [Example 91, ethyl [2,6-dichloro-4-(2,3-dihydrobenzo[1,4]oxazine-4-carbonyl)phenoxy]acetate], for which the IC50 was greater than 50 µM. As for `O=C(c1cc(Br)c(O)c(Br)c1)N1CCOc2ccc([N+](=O)[O-])cc21` [Example 69, (3,5-dibromo-4-hydroxyphenyl)-(6-nitro-2,3-dihydrobenzo[1,4]oxazin-4-yl)-methanone], the IC50 stood at 21 µM. As to `Cc1ccc2c(c1)OCCN2C(=O)c1cc(Cl)c(O)c(Cl)c1` [Example 13, (3,5-dichloro-4-hydroxyphenyl)-(7-methyl-2,3-dihydrobenzo[1,4]oxazin-4-yl)-methanone], the IC50 stood at 18 µM.

In the case of `O=C(c1cc(Cl)c(O)c(Cl)c1)N1CCOc2cc(O)ccc21` [Example 20, (3,5-dichloro-4-hydroxyphenyl)-(7-hydroxy-2,3-dihydrobenzo[1,4]oxazin-4-yl)-methanone], the IC50 amounted to 13 µM. Take `CCN(CC)S(=O)(=O)c1ccc2c(c1)N(C(=O)c1cc(Cl)c(O)c(Cl)c1)CCO2` [Example 21, 4-(3,5-dichloro-4-hydroxybenzoyl)-3,4-dihydro-2H-benzo[1,4]oxazine-6-sulfonic acid diethylamide]: the IC50 was found to be 17 µM. As to `Cc1cccc2c1OCCN2C(=O)c1cc(Cl)c(O)c(Cl)c1` [Example 15, (3,5-dichloro-4-hydroxyphenyl)-(8-methyl-2,3-dihydrobenzo[1,4]oxazin-4-yl)-methanone], the IC50 is 6 µM. In the case of `Cc1cc(C)c2c(c1)N(C(=O)c1cc(Cl)c(O)c(Cl)c1)CCO2` [Example 66, (3,5-dichloro-4-hydroxyphenyl)-(6,8-dimethyl-2,3-dihydrobenzo[1,4]oxazin-4-yl)-methanone], the IC50 came out at 12 µM. Turning to `Cc1ccc2c(c1)N(C(=O)c1cc(Cl)c(O)c(Cl)c1)CCO2` [Example 12, (3,5-dichloro-4-hydroxyphenyl)-(6-methyl-2,3-dihydrobenzo[1,4]oxazin-4-yl)-methanone], the IC50 came out at 22 µM. As for `O=C1COc2ccccc2N1C(=O)c1cc(Cl)c(O)c(Cl)c1` [Example 24, 4-(3,5-dichloro-4-hydroxybenzoyl)-4H-benzo[1,4]oxazin-3-one], the IC50 was greater than 50 µM. As for `CS(=O)(=O)Nc1ccc2c(c1)OCCN2C(=O)c1cc(Cl)c(O)c(Cl)c1` [Example 72, N-[4-(3,5-dichloro-4-hydroxybenzoyl)-3,4-dihydro-2H-benzo[1,4]oxazin-7-yl]-methanesulfonamide], the IC50 was determined as 13 µM. The result for `O=C(c1cc(Cl)c(O)c(Cl)c1)N1c2ccccc2Oc2ccccc21` [Example 64, (3,5-dichloro-4-hydroxyphenyl)-phenoxazin-10-ylmethanone] reads 6 µM; that for `Nc1ccc2c(c1)OCCN2C(=O)c1cc(Cl)c(O)c(Cl)c1` [Example 71, (7-amino-2,3-dihydrobenzo[1,4]oxazin-4-yl)-(3,5-dichloro-4-hydroxyphenyl)-methanone], 15 µM; that for `COC(=O)c1ccc2c(c1)N(C(=O)c1cc(Cl)c(O)c(Cl)c1)CCO2` [Example 55, methyl 4-(3,5-dichloro-4-hydroxybenzoyl)-3,4-dihydro-2H-benzo[1,4]oxazine-6-carboxylate], 19 µM. Turning to `COC(=O)c1ccc(C(=O)N2CCOc3ccccc32)cc1` [Example 46, methyl 4-(2,3-dihydrobenzo[1,4]oxazine-4-carbonyl)benzoate], the IC50 was greater than 50 µM. In the case of `O=C(c1cc(Br)c(O)c(Br)c1)N1CCOc2ccc3ccccc3c21` [Example 80, (3,5-dibromo-4-hydroxyphenyl)-(2,3-dihydronaphtho[2,1-b][1,4]oxazin-1-yl)-methanone] it was 5 µM. Take `O=C(c1cnc(O)c(Cl)c1)N1CCOc2ccccc21` [Example 29, (5-chloro-6-hydroxypyridin-3-yl)-(2,3-dihydrobenzo[1,4]oxazin-4-yl)-methanone]: the IC50 is greater than 50 µM. On to `Cc1cc(C(=O)N2CCOc3ccccc32)cc(C)c1O` [Example 7, (2,3-dihydrobenzo[1,4]oxazin-4-yl)-(4-hydroxy-3,5-dimethylphenyl)-methanone], for which the IC50 is 4 µM.

On to `O=C(c1ccc(O)c(Br)c1)N1CCOc2ccccc21` [Example 2, (3-bromo-4-hydroxyphenyl)-(2,3-dihydrobenzo[1,4]oxazin-4-yl)-methanone], for which the IC50 was determined as 37 µM. The result for `O=C(c1cc(Cl)c(O)c(Cl)c1)N1CCOc2c(O)cccc21` [Example 90, (3,5-dichloro-4-hydroxyphenyl)-(8-hydroxy-2,3-dihydrobenzo[1,4]oxazin-4-yl)-methanone] reads 21 µM.

Turning to `O=C(c1cc(Cl)c(O)c(Cl)c1)N1CCSc2ccccc21` [Example 8, (3,5-dichloro-4-hydroxyphenyl)-(2,3-dihydrobenzo[1,4]thiazin-4-yl)-methanone], the IC50 turned out to be 19 µM.

`NS(=O)(=O)c1ccc2c(c1)N(C(=O)c1cc(Cl)c(O)c(Cl)c1)CCO2` [Example 25, 4-(3,5-dichloro-4-hydroxybenzoyl)-3,4-dihydro-2H-benzo[1,4]oxazine-6-sulfonamide]: the IC50 is greater than 50 µM. `O=C(c1ccc(O)c([N+](=O)[O-])c1)N1CCOc2ccccc21` [Example 75, (2,3-dihydrobenzo[1,4]oxazin-4-yl)-(4-hydroxy-3-nitrophenyl)-methanone]: the IC50 was greater than 50 µM. The result for `COc1ccc2c(c1)N(C(=O)c1cc(Cl)c(O)c(Cl)c1)CCO2` [Example 17, (3,5-dichloro-4-hydroxyphenyl)-(6-methoxy-2,3-dihydrobenzo[1,4]oxazin-4-yl)-methanone] reads 33 µM; that for `CC(C)(C)c1ccc2c(c1)N(C(=O)c1cc(Cl)c(O)c(Cl)c1)CCO2` [Example 23, (6-tert-butyl-2,3-dihydrobenzo[1,4]oxazin-4-yl)-(3,5-dichloro-4-hydroxyphenyl)-methanone], 19 µM; that for `O=C(c1cc(Cl)nc(Cl)c1)N1CCOc2ccccc21` [Example 42, (2,6-dichloropyridin-4-yl)-(2,3-dihydrobenzo[1,4]oxazin-4-yl)-methanone], greater than 50 µM. In the case of `O=C(c1cc(Cl)c(O)c(Cl)c1)N1CCOc2ccc(CO)cc21` [Example 56, (3,5-dichloro-4-hydroxyphenyl)-(6-hydroxymethyl-2,3-dihydrobenzo[1,4]oxazin-4-yl)-methanone], the IC50 is greater than 50 µM. The result for `Nc1ccc2c(c1)N(C(=O)c1cc(Cl)c(O)c(Cl)c1)CCO2` [Example 68, (6-amino-2,3-dihydrobenzo[1,4]oxazin-4-yl)-(3,5-dichloro-4-hydroxyphenyl)-methanone] reads 27 µM; that for `CCNS(=O)(=O)c1ccc2c(c1)N(C(=O)c1cc(Cl)c(O)c(Cl)c1)CCO2` [Example 34, 4-(3,5-dichloro-4-hydroxybenzoyl)-3,4-dihydro-2H-benzo[1,4]oxazine-6-sulfonic acid ethylamide], 11 µM; that for `O=C(c1cc(Cl)cc(Cl)c1)N1CCOc2ccccc21` [Example 63, (3,5-dichlorophenyl)-(2,3-dihydrobenzo[1,4]oxazin-4-yl)-methanone], greater than 50 µM.

The record behind these values is patent publication US20070010670A1, “Nitrogen-containing fused ring compounds and use thereof” (Japan Tobacco Inc., priority 2004, published 2007).
